In brackets after ≈: the same amount, converted by molar mass.
Legend:
[1] = Solid stability study (XRPD and HPLC purity after storage); format: physicochemical
Description: X-ray powder diffraction patterns were collected using a zero-background sample plate on a Bruker D8 Advance X-ray diffractometer equipped with an autosampler. The radiation source used was Cu Kα (λ=1.5418 Å), with the X-ray tube voltage set at 40 kV and the X-ray tube current set at 40 mA. The divergence slit for the X-rays was 0.6 mm. A suitable amount of the sample was placed in the center of the zero-background sample plate under the ambient condition and lightly pressed with a clean glass slide to obtain a smooth, flat surface. The zero-background sample holder was then fixed. Diffraction analysis of the sample was performed with a scan step size of 0.02° (2θ) over a range of 3-40° (2θ). The software used for data collection was DIFFRAC.COMMANDER, and the data were analyzed and presented using DIFFRAC.EVA. The instrument used for liquid chromatography analysis is the Agilent HPLC 1260 series. [table] The ATV014 crystalline form I obtained from Example 2, batch number 41579-025-C1, was used for solid stability studies. The samples were placed under the conditions shown in Table 5, and then their XRPD and purity were tested.

physchem = format: physicochemical
Experimental: Based on the salt screening study results, the solubility of ATV014 crystalline form I obtained in Example 2, batch number 41579-025-C5, was determined at 37° C. in FaSSIF, FeSSIF, SGF, and water at 0.5 h, 2 h, and 24 h. The solubility of the sample is pH-dependent, meaning that the lower the pH, the higher the solubility.

[2] = Dynamic vapor sorption analysis (DVS), hygroscopicity; format: physicochemical; details: for DVS Hygroscopic weight gain %: 25° C., batch 41579-025-C5
Experimental: Vapor sorption/desorption data of the sample was obtained using DVS Intrinsic. A sample of 10-50 mg was weighed and placed in the sample chamber for automatic weighing. Parameters were set according to Table 1 to analyze the hygroscopicity of the sample.
The ATV014 crystalline form I obtained in Example 2 with batch number 41579-025-C5 was subjected to PLM (Polarized Light Microscopy Analysis), XRPD (X-ray Powder Diffraction), DSC (Differential Scanning calorimetry), TGA (Thermogravimetric Analysis), and DVS (Dynamic Vapor Sorption Instrument) testing.

[3] = Activity of ATV014 compared to GS-441524 (inventor's research)
Description: (§1) The compound represented by the formula ATV014 is a derivative of the compound GS-441524.

[4] = Description: as §1
SARS-CoV-2 = details: in vivo activity tests in mice; cited from earlier work
[5] = 40° C./75% RH, open container, 7 days
[6] = 60° C., closed container, 7 days
[7] = Room temperature/92.5% RH, open container, 7 days

In the case of `N#C[C@@]1(c2ccc3c(N)ncnn23)O[C@H](COC(=O)C2CCCCC2)[C@@H](O)[C@H]1O` [ATV014 crystalline form I], the Purity % ([1]; 0 day (start of stability study), batch 41579-025-C1) was 98.12%, the Purity % [1, 5] was 98.09% and the XRPD result [1, 5] was “No change”. For the same molecule, the Purity % [1, 6] was 98.10%, the XRPD result [1, 6] was “No change” and the “physical and chemical properties after storage” value ([1]; 7 days under 40° C./75% RH, 60° C., and 92.5% RH) was “remained stable”. The Purity % [1, 7] was 98.19%, the XRPD result [1, 7] was “No change” and the “crystalline form of remaining solids during solubility determination (XRPD)” value (physchem) was “the crystalline form did not change”. The Solubility (physchem; 37 °C, pH 1.24, simulated gastric fluid, thermodynamic from solid) was about 2900 µg/mL (≈ 7.22 mM), the Solubility (physchem; 37 °C, pH 5.53, water, thermodynamic from solid) was about 5 µg/mL (≈ 0.0125 mM) and the Solubility (physchem; 0.5 h, pH 1.24) was 2480 µg/mL (≈ 6.18 mM). The Solubility (physchem; 2 h, pH 1.24) was 2560 µg/mL (≈ 6.38 mM), the Solubility (physchem; 24 h, pH 1.24) was 2860 µg/mL (≈ 7.12 mM) and the “XPRD (remaining solid)” value (physchem; 24 h, pH 5.53) was “Unchanged”. The “XPRD (remaining solid)” value (physchem; simulated gi fluid, 24 h, pH 1.24) was “Unchanged”, the “XPRD (remaining solid)” value (physchem; simulated gi fluid, 24 h, pH 4.95) was “Unchanged” and the “XPRD (remaining solid)” value (physchem; simulated gi fluid, 24 h, pH 6.45) was “Unchanged”. The “hygroscopicity (DVS results)” value [2] was “low hygroscopicity”, the “DVS Hygroscopic weight gain %” value ([2]; 80% RH) was 80% RH: 0.31% and the “DVS Hygroscopic weight gain %” value ([2]; 90% RH) was 90% RH: 0.40%. For the same molecule, the “Crystalline form after DVS testing” value ([2]; after full sorption/desorption cycle) was “unchanged after”.
With `N#C[C@@]1(c2ccc3c(N)ncnn23)O[C@H](COC(=O)C2CCCCC2)[C@@H](O)[C@H]1O` [ATV014] the “activity compared to the compound GS-441524” value [3] was “better” and the “bioavailability compared to the compound GS-441524” value [4] was “better”.
For `N#C[C@@]1(c2ccc3c(N)ncnn23)O[C@H](CO)[C@@H](O)[C@H]1O` [GS-441524], the “antiviral activity compared to Remdesivir” value (SARS-CoV-2) is listed as “superior antiviral activity compared to Remdesivir”.
